Where “and” joins values, the source holds several entries; their conditions need not be identical. Identical values can stand only once.
Legend:
MRP1 = system: MRP1; parameters: method as in PMID 15670588; conditions: 25 µmol/L; ref [65]; cited from earlier work
MRP2 = system: MRP2; parameters: method as in PMID 15670588; conditions: 25 µmol/L; ref [65]; cited from earlier work
[1] = system: cleaved PARP in HUVEC-ST cells; assay: Cleaved PARP In-Cell ELISA in HUVEC-ST cells; format: cell-based, human
Description: (§1) Unless otherwise indicated, in experiments, cells were seeded at an appropriate density for the specific assay into 96-well plates or Petri dishes. They were then incubated in standard culture conditions, which included a temperature of 37 °C, 100% relative humidity, and a 5% CO2 incubator. […] After treatment, the cells were washed with PBS and, depending on the experiment, immediately used for measurement or cultured in a fresh medium for 24 or 48 h. Control cells were treated with a corresponding volume of PBS. Additional controls for solvents were also performed.
(§2) The expression of the protein was monitored using a target-specific primary antibody against an 85 kDa stable fragment of PARP proteolysis and a horseradish peroxidase-conjugated detection reagent.
(§3) The amount of cleaved PARP was measured in cells according to the manufacturer’s protocol immediately after the treatment and after 24 or 48 h postincubation. The absorbance was measured at a wavelength of λ = 450. Additionally, the whole cell staining was performed with Janus Green dye, and the absorbance was measured at a wavelength of λ = 615. […] Subsequently, the values were calculated as a fold increase, which means the ratio of an increased amount of cleaved PARP to the amount of cleaved PARP in control cells.

MCF-7 cells [2] = assay: Alkaline comet assay in MCF-7 cells; format: cell-based, human
Description: as §1
The comet assay, also known as the single-cell gel electrophoresis assay, is a highly sensitive and versatile method for measuring single- and double-stranded DNA breaks. The assay uses an electric field to move negatively charged DNA fragments through an agarose gel. The amount of migration reflects the level of DNA damage in the cells.
The analysis was performed under alkaline conditions, according to the method of Singh et al., on cells immediately after the treatment and 24 or 48 h postincubation. […] One hundred randomly chosen cells were analyzed on each slide using a fluorescence microscope Zeiss Axio Scope A1 (Carl Zeiss, Oberkochen, Germany) with a video camera connected to the image-analysis system Lucia-Comet v. […]

HUVEC = system: HUVEC; parameters: method as in Liu et al. [53]; conditions: 50 µmol/L, 48 h; ref Liu et al. [53]; cited from earlier work
MCF-7 cells [3] = assay: Cytometric measurement of doxorubicin accumulation in MCF-7 cells; format: cell-based, human; conditions: 22 h preincubation with flavonoid IC50, after 20 min of drug
Description: The aromatic rings in the hydrophobic part of doxorubicin give the drug molecule fluorescent properties (λex = 490 nm, λem = 590 nm). Thus, the flow cytometric measurement of drug fluorescence inside the cells allows for the monitoring of its transport rate through the cell membrane. The increase in the intensity of drug fluorescence inside the cells is highly correlated with its accumulation.
The DOX was added to the cell suspension to achieve a final concentration equal to the IC50 value. During one hour of incubation (temp 37 °C) with the drug, samples for cytometric measurement were taken from the cell suspension after the first 5 min and then after every 10 min. Samples were analyzed using the flow cytometer LSR® II from Becton Dickinson (San Jose, CA, USA) using an argon laser with a wavelength of λ = 488 nm. Doxorubicin fluorescence intensity was calculated per single cell.

MCF-7 cells [4] = assay: Annexin V FITC/propidium iodide double staining in MCF-7 cells; format: cell-based, human; conditions: for Viable cells: docetaxel IC50 + high concentration of flavonoid
Description: as §1
This assay is based on the principle that, in viable cells, phosphatidylserine (PS) is located in the inner membrane (side facing the cytoplasm). However, upon induction of apoptosis, PS is translocated to the outer membrane (PS also appears on the necrotic cell surface). The exposed phosphatidylserine can be detected by protein Annexin V stained with FITC dye. The addition of propidium iodide (PI) enabled necrotic cells to be distinguished. Thus, this method is convenient for counting and differentiating live cells from those undergoing apoptosis or necrosis.
The analysis was performed according to the manufacturer’s protocol on cells immediately after the treatment and 24 or 48 h postincubation. Samples were analyzed using the flow cytometer LSR® II from Becton Dickinson (San Jose, CA, USA) using an argon laser with a wavelength of λ = 488 nm.

HUVEC-ST cells = assay: Flavonoid-drug combination index (MTT, CompuSyn) in HUVEC-ST cells; format: cell-based, human
Description: The experiment with a non-constant combination of BLIN and BLEIN with DOX or DTX was carried out to determine the synergistic, additive, or antagonistic effect between investigated flavonoids and anticancer drugs. […] Subsequently, cell viability was determined by MTT assay. […] The results were presented as a combination index (CI).

MCF-7 cell [5] = system: MCF-7 cell; parameters: method as in Liu et al. [48]; conditions: ref Liu et al. [48]; read-out: IC50, MCF-7 cell growth inhibition; cited from earlier work
[6] = system: cleaved PARP in MCF-7 cells; assay: Cleaved PARP In-Cell ELISA in MCF-7 cells; format: cell-based, human; conditions: docetaxel + flavonoid IC50, most intense of all times and combinations
Description: as §1, §2, §3

MCF-7 cell [7] = system: MCF-7 cell; parameters: method as in Wang et al. [49]; conditions: 5–100 µmol/L for 72 h; ref Wang et al. [49]; cited from earlier work
[8] = doxorubicin IC50 + flavonoid IC50 preincubation, 48 h post-incubation
[9] = flavonoid IC50 alone 24 h, 24 h after incubation
[10] = flavonoid IC50 alone 24 h, 48 h after incubation
[11] = flavonoid IC10 22 h preincubation + DOX IC50 2 h
[12] = flavonoid IC10 22 h preincubation + DTX IC50 2 h
[13] = flavonoid IC50 22 h preincubation + DOX IC50 2 h
[14] = flavonoid IC50 22 h preincubation + DTX IC50 2 h

O=c1cc(-c2ccccc2)oc2cc(O)c(O)c(O)c12 [baicalein, 5,6,7-Trihydroxyflavone]
Inhibition of MRP1 protein activity (MRP1): inhibit the activity of MRP2 and MRP1 proteins | Inhibition of MRP2 protein activity (MRP2): inhibit the activity of MRP2 and MRP1 proteins | Amount of cleaved PARP relative to control cells ([1]; doxorubicin + flavonoid IC50, 48 h after incubation): twice higher than in control cells | Amount of cleaved PARP relative to control cells ([1]; flavonoid IC50 alone, 24 and 48 h after incubation): nearly two times higher than in control cells | DNA in the comet tail (MCF-7 cells [2]; docetaxel IC50 + flavonoid IC50, 24 h after incubation): 16% | DNA in the comet tail (MCF-7 cells [2]; docetaxel IC50 + flavonoid IC50, immediately after incubation): 19% | Viable HUVECs, % of the control (HUVEC): 37% ± 3% | Amount of doxorubicin in cells relative to cells not treated with flavonoids (MCF-7 cells [3]): over two times higher | AV+/PI− cells (undergoing apoptosis) (MCF-7 cells [4]; [8]): 21% | AV+/PI− cells (undergoing apoptosis) (MCF-7 cells [4]; [9]): ~20% | AV+/PI+ cells (MCF-7 cells [4]; [10]): 28% | Combination index (CI) (HUVEC-ST cells; [11]): 0.8721 | Combination index (CI) (HUVEC-ST cells; [12]): 0.9611 | Combination index (CI) (HUVEC-ST cells; [13]): 0.6801 | Combination index (CI) (HUVEC-ST cells; [14]): 0.4428 | IC50 (MCF-7 cell [5]): 85.1 ± 1.26 µM

O=C(O)[C@H]1O[C@@H](Oc2cc3oc(-c4ccccc4)cc(=O)c3c(O)c2O)[C@H](O)[C@@H](O)[C@@H]1O [baicalin, baicalein 7-O-β-D-glucuronide]
Viable HUVECs, % of the control (HUVEC): 61% ± 8% | PARP cleavage, fold increase to control [6]: 2.5 fold | Inhibitory effect on MCF-7 cell proliferation (MCF-7 cell [7]): did not observe any inhibitory effect | Amount of doxorubicin in cells relative to cells not treated with flavonoids (MCF-7 cells [3]): over two times higher | Viable cells (MCF-7 cells [4]; 24 h after incubation): 22% | Viable cells (MCF-7 cells [4]; 48 h after incubation): 24% | AV+/PI− cells (undergoing apoptosis) (MCF-7 cells [4]; [8]): 34% | AV+/PI− cells (undergoing apoptosis) (MCF-7 cells [4]; [9]): ~20% | AV+/PI+ cells (MCF-7 cells [4]; [10]): 25% | Combination index (CI) (HUVEC-ST cells; [11]): 2.915 | Combination index (CI) (HUVEC-ST cells; [12]): 0.9948 | Combination index (CI) (HUVEC-ST cells; [13]): 1.794 | Combination index (CI) (HUVEC-ST cells; [14]): 3.1 and 3.137

Reference: article PMC11173533, “Baicalin and Baicalein Enhance Cytotoxicity, Proapoptotic Activity, and Genotoxicity of Doxorubicin and Docetaxel in MCF-7 Breast Cancer Cells” (Molecules, 2024)
